In US20250152580A1, “METHODS FOR TREATING IMMUNE DISEASES” (Ascentage Pharma (Suzhou) co., Ltd., priority 2022, published 2025):
“Also recorded” adds a separate entry of the source.

Test system: TNBS induced inflammatory bowel disease (IBD) model
Assay: TNBS induced inflammatory bowel disease (IBD) model in Balb/c mice
Format: in vivo
Details: for colon weight: vehicle 336.8±25.15 mg; for colon length: vehicle 6.26±0.16 cm; for pathological score (colon, H&E): vehicle 10.33±0.35
Source text: There are two kinds of IBD: Crohn's disease (CD) and ulcerative colitis (UC). TNBS administration results in a preclinical mouse model replicating clinical Crohn's disease.
Female Balb/c mice (8 weeks old) were obtained from Beijing Vital River Laboratory Animal Co. Ltd. Animals were housed and handled in a temperature-controlled environment with a 12-h light/12-h dark cycle. A total of 50 mice were assigned to 5 groups by randomization based on body weight.
On Day 0, the mice weighing 18-20 g were anesthetized with […] (Easycheck, M2910). The mice were further intra-rectally injected 100 μL 1.5% TNBS solution (final concentration 50% ethanol) in the vehicle group and other treatment groups. For the Sham group, the mice were intra-rectally injected with 50% ethanol at the same volume.
Mice in Group 1 and Group 2 were treated with vehicle for 8 days (po, qd, from day −1 to day 6). Mice in Group 3 were treated with 50 mg/kg Cpd. 4 for 8 days (preventive regimen, po, qd, from day −1 to day 6). Mice in Group 4 were treated with 50 mg/kg Cpd. 4 for 6 days (therapeutic regimen, po, qd, from day 1 to day 6). 50 mg/kg Mesalamine was used as positive control which was orally administered to mice in Group 5 for 8 days (preventive regimen, qd, from day −1 to day 6). The protocols and procedures involving the care and use of animals were approved by the Institutional Animal Care and Use Committee (IACUC) at WuxiApptec (Shanghai, China).
Clinical signs of IBD were assessed every day based on the score of disease activity index (DAI) which was evaluated from three parameters using a scoring system from 0 to 4: stool consistency (0, normal stool; 1, soft but still formed stool; 2, soft and not formed stool; 3, very soft and wet stool; 4, watery diarrhea), bleeding score (0, negative hemoccult; 1, weak positive hemoccult; 2, positive hemoccult; 3, blood trace in stool visible; 4, gross rectal bleeding) and body weight loss (0, no body weight loos; 1, 1-5% body weight loss; 2, 6-10% body weight loss; 3, 11-20% body weight loss; 4, >20% body weight loss).
At the end of induction with TNBS (day 7), the animals were euthanized, dissected and the entire colon was quickly removed and gently cleared of feces.
The entire colon was weighed, and the total length was measured. Colon weight gain and shortening is an indirect marker of inflammation. As expected, colon weight induced by TNBS increased to 336.8±25.15 mg. […] The TNBS-induced colon weight increasement were improved by Cpd. 4 treatment (202.4±3.95 mg for 50 mg/kg Cpd. 4 preventive therapy and 214.4±5.17 mg for 50 mg/kg Cpd. 4 therapeutic therapy) (FIG. 2).
At the end of induction with TNBS, the animals were euthanized, and blood was collected immediately by the heart punctures and used for whole blood cell analysis.
At the end of the study (day 7), the cell suspensions from sham control, model control and Cpd. 4 therapeutic treatment groups were obtained from mesenteric lymph nodes (MLN). Cells were stained with the following florescence-labelled antibodies: APC-Cy7-conjugated anti-mouse CD45, BV510-conjugated anti-mouse CD3e, AF700-conjugated anti-mouse CD8a, BUV395-conjugated anti-mouse CD4, BV421-conjugated anti-mouse CD25, FITC-conjugated anti-mouse Foxp3, BV650-conjugated anti-mouse IFN-γ, BV786-conjugated anti-mouse IL-17A, BB700-conjugated anti-mouse TNF-α, APC-conjugated anti-mouse B220, BV395-conjugated anti-mouse CD3e, BV605-conjugated anti-mouse CD11b, BB700-conjugated anti-mouse CD11c, AF488-conjugated anti-mouse MHCII, BV421-conjugated anti-mouse NK1.1, BV510-conjugated anti-mouse Ly6G, PE-Cy7-conjugated anti-mouse CD107a and PE-CF594-conjugated anti-mouse F4/80. All cells were primarily gated on single and live lymphocytes based on forward scatter (FCS), side scatter (SSC) and live/dead staining buffer. Samples were analyzed on a flow cytometer (BD LSRFortessa) to count the percentage of each subtype of lymphocytes. […]

[1] = 50 mg/kg po qd preventive treatment, day 7
[2] = 50 mg/kg po qd therapeutic treatment, day 7
[3] = 50 mg/kg po qd, Cpd. 4 preventive and therapeutic, mesalamine day −1 to day 6, compared with Vehicle
[4] = Cpd. 4 50 mg/kg po qd, preventive and therapeutic, compared with Vehicle, 50 mg/kg
[5] = mesenteric lymph nodes, flow cytometry, day 7, 50 mg/kg therapeutic treatment, compared with vehicle

O=C(NS(=O)(=O)c1ccc(NC[C@H]2COCCO2)c([N+](=O)[O-])c1)c1ccc(N2CCN(CC3=C(c4ccc(Cl)cc4)CC4(CCC4)CC3)CC2)cc1Oc1cnc2[nH]ccc2c1 [Cpd. 4, (S)-N-((4-(((1,4-dioxan-2-yl)methyl)amino)-3-nitrophenyl)sulfonyl)-2-((1H-pyrrolo[2,3-b]pyridin-5-yl)oxy)-4-(4-((6-(4-chlorophenyl)spiro[3.5]non-6-en-7-yl)methyl)piperazin-1-yl)benzamide]
colon weight (50 mg/kg po qd preventive therapy (day −1 to day 6), day 7): 202.4 ± 3.95 mg | colon length [1]: 7.81±0.2 cm | pathological score (colon, H&E) [1]: 2.70±0.80 | colon weight (50 mg/kg po qd therapeutic therapy (day 1 to day 6), day 7): 214.4 ± 5.17 mg | colon length [2]: 7.39±0.12 cm | pathological score (colon, H&E) [2]: 5.00±1.15 | disease activity index (DAI), clinical score of IBD (50 mg/kg po qd, Cpd. 4 preventive (day −1 to day 6) and therapeutic (day 1 to day 6) regimens, mesalamine day −1 to day 6, compared with Vehicle): significantly reducing the clinical score; also recorded: significantly reduced DAI | colon length (in words) [3]: increased colon length | colon weight (in words) [3]: significantly decreased colon weight | body weight loss (Cpd. 4 50 mg/kg po qd, preventive and therapeutic regimens, compared with Vehicle, 50 mg/kg): improving body weight loss; also recorded: improved body weight loss | cell number of monocytes in peripheral blood [4]: significantly reduced; also recorded: significantly decreased | cell number of neutrophils in peripheral blood [4]: significantly reduced; also recorded: significantly decreased | anemia (red blood cells and hemoglobin in peripheral blood) (Cpd. 4 50 mg/kg po qd, compared with Vehicle): improved anemia | fibrosis score (Masson's Trichrome staining of colon) (Cpd. 4 50 mg/kg therapeutic treatment, compared with Vehicle): significantly reduced | pathological score (in words) (Cpd. 4 preventive and therapeutic, compared with Vehicle): significantly decreased | percentage of IFN-γ secreting CD4+ T cells (Th1 cells) [5]: significantly reduced | percentage of IL-17A secreting CD4+ T cells (Th17 cells) [5]: significantly reduced | percentage of NK cells (CD45+CD3−B220−NK1.1+) [5]: significantly reduced | percentage of activated NK cells (CD45+CD3−B220−NK1.1+CD107a+) [5]: significantly reduced | percentage of macrophages (CD45+CD3−B220−CD11b+F4/80+) [5]: significantly reduced | percentage of neutrophils (CD45+CD3−B220−CD11B+LY6G+) [5]: significantly reduced
